Where a name gives a salt, the structure may show the parent alone. Read-outs that look alike come from different tables or passages of the source.
Legend:
[1] = target: T1, recombinant human Meningioma Expressed Antigen 5 (MGEA5), also referred to as O-GlcNAcase (OGA) (Homo sapiens, UniProt O60502); assay: OGA biochemical assay: inhibition of FM-GlcNAc hydrolysis, fluorescence; protocol A (10 nM OGA, 1 h) or protocol B (2 nM OGA, 6 h); settings: for IC50: read-out: Enzymatic hOGA, pIC50 (converted)
T1 construct: Full length OGA enzyme was purchased at OriGene (cat # TP322411); purchased OriGene TP322411
T1 sequence (O60502 1-916): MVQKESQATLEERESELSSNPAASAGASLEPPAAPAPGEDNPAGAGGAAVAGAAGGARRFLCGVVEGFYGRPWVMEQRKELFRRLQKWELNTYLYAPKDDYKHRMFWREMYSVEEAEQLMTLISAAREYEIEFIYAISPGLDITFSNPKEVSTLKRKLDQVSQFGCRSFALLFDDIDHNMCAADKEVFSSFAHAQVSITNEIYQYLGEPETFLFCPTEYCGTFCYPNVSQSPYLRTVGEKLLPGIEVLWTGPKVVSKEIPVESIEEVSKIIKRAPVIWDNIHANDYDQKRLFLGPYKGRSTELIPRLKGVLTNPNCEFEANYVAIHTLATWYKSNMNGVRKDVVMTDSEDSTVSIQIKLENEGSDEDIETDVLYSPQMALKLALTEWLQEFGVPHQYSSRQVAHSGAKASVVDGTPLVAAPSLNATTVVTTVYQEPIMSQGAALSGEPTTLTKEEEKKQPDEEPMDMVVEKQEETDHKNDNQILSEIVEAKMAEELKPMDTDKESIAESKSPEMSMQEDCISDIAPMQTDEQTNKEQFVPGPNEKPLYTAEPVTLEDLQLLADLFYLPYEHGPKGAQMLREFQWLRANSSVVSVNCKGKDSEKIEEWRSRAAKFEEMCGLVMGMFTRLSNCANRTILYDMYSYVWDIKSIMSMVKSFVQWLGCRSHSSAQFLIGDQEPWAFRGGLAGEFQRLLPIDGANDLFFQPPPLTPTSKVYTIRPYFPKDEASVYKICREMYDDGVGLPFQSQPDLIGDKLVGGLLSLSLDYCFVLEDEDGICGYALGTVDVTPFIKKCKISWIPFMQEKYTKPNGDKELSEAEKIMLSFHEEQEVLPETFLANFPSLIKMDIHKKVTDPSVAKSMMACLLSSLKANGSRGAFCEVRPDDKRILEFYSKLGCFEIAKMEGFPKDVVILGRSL
Procedure, shortened: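 Full-length human OGA in 200 mM citrate/phosphate pH 7.2 with 0.005% Tween-20, compound pre-incubated 60 min at RT, then 100 uM FM-GlcNAc (final); 10 nM enzyme for 1 h or 2 nM for 6 h at RT. Stopped with pH 11.0 carbonate; fluorescein read at ex 485/em 538 nm. IC50 and Hill coefficient from curve fit.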

[2] = tested on: OGA in HEK293 cells inducible for P301L mutant human Tau (isoform 2N4R); assay: OGA cellular assay: immunocytochemical detection of O-GlcNAcylated proteins (CTD110.6 antibody) after 6 h incubation; type: cell-based; settings: for Emax / EC50: Homo sapiens, HEK293, 6 h; for Emax / Cellular Emax (%): maximum = Thiamet G 200 uM; for EC50: read-out: Cellular hOGA, pEC50 (converted)
Procedure, shortened: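 Low-glucose medium, 6 h compound exposure at 0.2% DMSO; cells PFA-fixed and O-GlcNAc ICC signal imaged at 488 nm (9 fields/well), Hoechst nuclei counted for toxicity. Thiamet G 200 uM on each plate as maximum; IC50 from non-linear regression.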

[3] = Enzymatic protocol B (2 nM OGA, 6 h)
[4] = Enzymatic protocol A (10 nM OGA, 1 h)

| Compound | Emax [1, 3] [%] | IC50 [1, 3] [nM] | Emax [2] [%] | EC50 [2] [nM] | further results |
| --- | --- | --- | --- | --- | --- |
| CC(=O)Nc1ncc(CN2CCC(Cc3ncccc3F)C2)s1 (stereo not shown) [compound 39] | 99.2 | 60.3 |  |  | melting point: 150.08 °C |
| Cc1cc(CC2CCCN(C(C)c3ccc4c(c3)OCCO4)C2)cc(C)n1 (racemic) (as salt: HCl) [compound 142] |  |  |  |  | melting point: 256.05 °C |
| CC(=O)Nc1ncc(CN2CCC(Cc3nccc(C)c3F)C2)s1 (stereo not shown) [compound 43] | 102 | 9.12 | 87 | 79.4 | melting point: 129.25 °C |
| Cc1cc(CC2CCCN(C(C)c3ccc4sc(C)nc4c3)C2)cc(C)n1 (single isomer, unassigned) (as salt: HCl) [compound 118] |  |  |  |  | melting point: 270.1 °C |
| CC(=O)Nc1ncc(CN2CCC(COc3cc(C)nc(C)c3)C2)s1 (racemic) [Product 89] |  |  |  |  | melting point: 125.9 °C |
| CC(=O)Nc1ncc(CN2CCC(Cc3cncnc3C)C2)s1 (racemic) [Product 103] |  |  |  |  | melting point: 147.16 °C |
| CC(=O)Nc1ncc(CN2CCC(OCc3cc(C)nc(C)c3)C2)s1 (racemic) [Product 81] |  |  |  |  | melting point: 118.26 °C |
| CC(=O)Nc1ncc(CN2CCC(Cc3ccc(C)nn3)C2)s1 (stereo not shown) [compound 90] |  |  |  |  | Enzymatic Emax (%) [1, 3]: 100%; Enzymatic hOGA; pIC50 [1, 3]: 7.77; Cellular hOGA; pEC50 [2]: 6.83; Cellular Emax (%) [2]: 73.7% |
| CC(=O)Nc1ncc(CN2CCCC(Cc3cc(C)nc(C)n3)C2)s1 (stereo not shown) [compound 24] | 101 | 5.5 | 111 | 32.4 |  |
| CC(=O)Nc1ncc(CN2CCC(OCc3cc(C)nc(C)c3)C2)s1 (stereo not shown) [compound 81] | 102 | 72.4 | 51.7 | 501 |  |
| CC(=O)Nc1ncc(CN2CCCC(Nc3ccnc(C)c3)C2)s1 (racemic) [compound 155] | 101 | 6.03 | 84.2 | 14.8 |  |
| CC(=O)Nc1ncc(CN2CCC[C@@H](Oc3cc(C)nc(C)c3)C2)s1 [compound 15] | 102 | 8.51 | 98.4 | 1230 |  |
| CC(=O)Nc1ncc(CN2CC[C@H](Cc3cc(C)nc(F)c3)C2)s1 [compound 110] | 103 | 20 | 91.3 | 24.5 |  |
| CC(=O)Nc1ncc(CN2CC[C@H](Cc3cc(C)nc(C(F)(F)F)c3)C2)s1 [compound 76] |  |  |  |  | Enzymatic Emax (%) [1, 3]: 102.4%; Enzymatic hOGA; pIC50 [1, 3]: 7.59; Cellular hOGA; pEC50 [2]: 7.56; Cellular Emax (%) [2]: 92.3% |
| CC(=O)Nc1ncc(CN2CCC[C@H](Cc3cc(F)ncc3C)C2)s1 [compound 122] | 100 | 2.51 | 97.2 | 4.17 |  |
| CC(=O)Nc1ncc(CN2CCC(Cc3cc(C)nc(C)n3)C2)s1 (stereo not shown) [compound 77] |  |  |  |  | Enzymatic Emax (%) [1, 3]: 101.8%; Enzymatic hOGA; pIC50 [1, 3]: 7.91; Cellular hOGA; pEC50 [2]: 7.27; Cellular Emax (%) [2]: 91.1% |
| CC(=O)Nc1ncc(CN2CC[C@H](Cc3cnc(C)nc3)C2)s1 [compound 62] |  |  |  |  | Enzymatic Emax (%) [1, 3]: 102.4%; Enzymatic hOGA; pIC50 [1, 3]: 7.93; Cellular hOGA; pEC50 [2]: 7.20; Cellular Emax (%) [2]: 81.8% |
| CC(=O)Nc1ncc(CN2CCC(Cc3cc(F)ncc3C)C2)s1 (stereo not shown) [Product 106] |  |  |  |  | melting point: 140.36 °C |
| CC(=O)Nc1ncc(CN2CCC(Cc3ncc(F)cc3C)C2)s1 (stereo not shown) [compound 104] | 102 | 20 | 89.4 | 58.9 |  |
| CC(=O)Nc1ncc(CN2CC[C@H](Cc3ccnc(C)c3)C2)s1 [compound 63] |  |  |  |  | Enzymatic Emax (%) [1, 3]: 101.9%; Enzymatic hOGA; pIC50 [1, 3]: 7.90; Cellular hOGA; pEC50 [2]: 7.46; Cellular Emax (%) [2]: 90.1% |
| CC(=O)Nc1ncc(CN2CCCC(Oc3cc(C)nc(C)c3)C2)s1 (stereo not shown) [compound 14] | 101 | 9.12 | 118 | 112 | Emax [1, 4]: 100%; IC50 [1, 4]: 8.13 nM |
| CC(=O)Nc1ncc(CN2CC[C@H](Cc3ccc(C#N)cn3)C2)s1 [compound 46] | 101 | 21.9 | 85.9 | 47.9 |  |
| CC(=O)Nc1ncc(CN2CC[C@H](Cc3nccc(C)c3C)C2)s1 [compound 70] | 102 | 66.1 | 97.7 | 129 |  |
| CC(=O)Nc1ncc(CN2CCC[C@H](Cc3ncc(F)cc3F)C2)s1 [compound 121] | 98.3 | 4.27 | 110 | 28.8 |  |
| CC(=O)Nc1ncc(CN2CC[C@H](Cc3ncccc3C#N)C2)s1 [compound 45] | 101 | 26.9 | 80.1 | 219 |  |
| CCc1cc(C[C@H]2CCN(Cc3cnc(NC(C)=O)s3)C2)cc(C)n1.Cl [compound 80] |  |  |  |  | Enzymatic Emax (%) [1, 3]: 101.5%; Enzymatic hOGA; pIC50 [1, 3]: 8.24; Cellular hOGA; pEC50 [2]: 7.94; Cellular Emax (%) [2]: 90% |
| CC(=O)Nc1ncc(CN2CC[C@H](Cc3cnc(C(=O)NC(C)(C)C)cn3)C2)s1 [compound 92] | 99.7 | 22.4 | 92.6 | 81.3 |  |

Now from value to molecule, other results behind:

| Emax [1, 3] [%] | IC50 [1, 3] [nM] | Compound | Emax [2] [%] | EC50 [2] [nM] | further results |
| --- | --- | --- | --- | --- | --- |
| 99.3 | 17.8 | CC(=O)Nc1ncc(CN2CCCC(c3cc(C)nc(C)c3)C2)s1 (stereo not shown) [compound 7] | 98.9 | 8.91 |  |
| 102 | 53.7 | CC(=O)Nc1ncc(CN2CCCC(COc3cc(C)nc(C)c3)C2)o1 (stereo not shown) [compound 138] | 74.2 | 437 |  |
| 97.4 | 43.7 | Cc1cc(NC2CCCN(C(C)c3ccc4nccnc4c3)C2)cc(C)n1 (racemic) [compound 156] | 89 | 468 |  |
| 102 | 102 | Cc1cc(C[C@H]2CCCN(Cc3ccc4c(c3)OCCO4)C2)cc(C)n1 [compound 152] | 41.9 | > 1000 |  |
| 97.9 | 417 | Cc1cc(O[C@@H]2CCCN(Cc3ccc4nccnc4c3)C2)cc(C)n1 [compound 18] | 12.4 | > 10000 |  |
| 102 | 11 | Cc1cc(CC2CCCN(C(C)c3ccc4c(c3)OCO4)C2)cc(C)n1 (racemic) [compound 141] | 83.5 | 87.1 |  |
| 104 | 178 | CC(=O)Nc1ncc([C@@H](C)N2CCC[C@@H](COc3cc(C)nc(C)c3)C2)s1 (single isomer, unassigned) [compound 135] |  |  | Cellular hOGA; pEC50 [2]: 6.3; Cellular Emax (%) [2]: 67.9% |
|  | 2.88 | Cc1cc(CC2CCCN(C(C)c3ccc4sc(C)nc4c3)C2)cc(C)n1 (single isomer, unassigned) [compound 119] |  |  | Enzymatic Emax (%) [1, 3]: 103.7%; Cellular hOGA; pEC50 [2]: 7.38; Cellular Emax (%) [2]: 107.3% |
| 101 | 25.7 | Cc1cc(N[C@@H]2CCCN(C(C)c3ccc4nccnc4c3)C2)cc(C)n1 (stereo partly shown) [compound 11] | 65.2 | 4270 |  |
| 102 | 1.05 | CC(=O)Nc1ncc(CN2CCC[C@H](Cc3cc(C)nc(C)c3)C2)s1 [compound 28] | 106 | 4.47 |  |
|  | 0.955 | CC(=O)Nc1ncc([C@@H](C)N2CCC[C@@H](COc3cc(C)nc(C)c3)C2)s1 (single isomer, unassigned) [compound 137] |  |  | Enzymatic Emax (%) [1, 3]: 102.2%; Cellular hOGA; pEC50 [2]: 8.83; Cellular Emax (%) [2]: 94.7% |

— US20200079766A1, “MONOCYCLIC OGA INHIBITOR COMPOUNDS” (Janssen Pharmaceutica NV, priority 2016, published 2020)
